Tested on: CARE patients
Assay: CARE trial: pravastatin vs placebo, recurrent MI in subgroups defined by KIF6 (and neighbouring SNP) genotype
Type: in vivo, human
Conditions: for HR, Unadjusted (recurrent MI, pravastatin vs placebo): placebo = ref; for OR for minor hom / OR for carrier (Min + Het) / OR for Het / OR for major hom: risk of recurrent MI
Source text: In order to identify genetic markers associated with CHD (particularly MI, including recurrent MI) or the effect of statin treatment on CHD, samples were genotyped in two clinical trials: the Cholesterol and Recurrent Events (CARE) study (a randomized multicentral double-blinded trial on secondary prevention of MI with pravastatin (Pravachol®); Sacks et al., Am. J. Cardiol. 68: 1436-1446 [1991]), and the West of Scotland Coronary Prevention Study (WOSCOPS) study (a randomized multicentral double-blinded trial on primary prevention of CHD with pravastatin (Pravachol®); Shepherd et al., N Eng J Med 333 (20), pp. 1301-7, Nov. 16, 1995; Packard et al., N Eng J Med 343 (16), pp. 1148-55, Oct. 19, 2000).
A well-documented MI was one of the enrollment criteria for entry into the CARE study. Patients were enrolled in the CARE trial from 80 participating study centers. […] Patients were randomized to receive either 40 mg of pravastatin once daily or a matching placebo. The primary endpoint of the trial was death from CHD or nonfatal MI and the median duration of follow-up was 5.0 years (range, 4.0 to 6.2 years). For this genetic study of CARE, a composite endpoint comprised of fatal or nonfatal recurrent MI was used.
For genotyping SNPs in CARE patient samples, DNA was extracted from blood samples using conventional DNA extraction methods such as the QIAamp kit from Qiagen. Genotypes were obtained by a method similar to that described by Iannone (M. A. Iannone et al., Cytometry 39(2):131-140 [Feb. 1, 2000]; also described in section “SNP DETECTION REAGENTS,” supra). Briefly, target DNA was amplified by multiplex PCR, the amplified product was submitted to a multiplex oligo ligation assay (OLA), the specific ligated products were hybridized to unique universal “ZIP code” oligomer sequences covalently attached to Luminex xMAP® Multi-Analyte COOH Microspheres, and these hybridization products/microspheres were detected in a rapid automated multiplex system (Luminex 100 instrument).
In analyzing the CARE patients, statistical analysis was performed with SAS version 9. Cox proportional hazard models (Wald tests) were used in CARE to assess the association of genotype with both the risk of incident MI in the placebo arm and the effect of pravastatin on MI compared to placebo in subgroups defined by genotypes. In analyzing the WOSCOPS patients, a conditional logistic regression model was used in WOSCOPS given that the controls had been previously matched to the cases. The column entitled “On-trial MI” lists the number of patients who suffered a recurrent MI during the clinical trial period.
HR stands for Hazard Ratio, which is a concept similar to Odds Ratio (OR). The HR in event-free survival analysis is the effect of an explanatory variable on the hazard or risk of an event. For examples, it describes the likelihood of developing MI based on comparison of rate of coronary events between carriers of the certain allele and noncarriers; therefore, HR=1.5 would mean that carriers of the certain allele have 50% higher risk of coronary events during the study follow up than non-carriers. HR can also describe the effect of statin therapy on coronary events based on comparison of rate of coronary events between patient treated with statin and patient treated with placebo (or other statin) in subgroups defined by SNP genotype; therefore, HR=0.5 would mean that, for example, carriers of the certain allele, had 50% reduction of coronary events by statin therapy as compared to placebo. In Table 6, p interaction values were calculated. An interaction (or effect modification) is formed when a third variable modifies the relation between an exposure and outcome. […] Genotype and drug interaction is present when the effect of statins (incidence rate of disease in statin-treated group, as compared to placebo) differs in patients with different genotypes. The hCV3054799 risk allele predicted risk of MI in CARE and was associated with odds of CHD in WOSCOPS. […]

## CC[C@H](C)C(=O)O[C@H]1C[C@H](O)C=C2C=C[C@H](C)[C@H](CC[C@@H](O)C[C@@H](O)CC(=O)O)[C@H]21 [Pravastatin, pravastatin]
AA (noncarriers), adjusted for conventional risk factors
  HR, Adjusted (recurrent MI, pravastatin vs placebo): 0.80
AA, of 554 patients in the pravastatin arm
  On-trial MI: 39 number of patients
GG + GA (719Arg carriers), adjusted for age, smoking, hypertension, diabetes, BMI, LDL-C, HDL-C
  HR, Adjusted (recurrent MI, pravastatin vs placebo): 0.63
GG + GA, of 810 patients in the pravastatin arm
  On-trial MI: 64 number of patients
KIF6 Trp719Arg AA (noncarriers)
  HR, Unadjusted (recurrent MI, pravastatin vs placebo): 0.86
KIF6 Trp719Arg GG + GA (719Arg carriers), 40 mg pravastatin once daily
  HR, Unadjusted (recurrent MI, pravastatin vs placebo): 0.63
Carriers of the 719Arg risk allele, pravastatin vs placebo
  reduction of relative risk of recurrent MI: 37%
noncarriers, pravastatin vs placebo, insignificant
  risk reduction (coronary events): 20%
Pravastatin vs placebo, hCV3054808 genotype AA
  OR, Effect of Pravastatin on MI and CHD: 1.04
Pravastatin vs placebo, hCV3054808 genotype AC
  OR, Effect of Pravastatin on MI and CHD: 0.50
Pravastatin vs placebo, hCV3054808 genotype CC
  OR, Effect of Pravastatin on MI and CHD: 1.01
Pravastatin vs placebo, hCV3054813 genotype CC
  OR, Effect of Pravastatin on MI and CHD: 0.98
Pravastatin vs placebo, hCV3054813 genotype CT
  OR, Effect of Pravastatin on MI and CHD: 0.45
Pravastatin vs placebo, hCV3054813 genotype TT
  OR, Effect of Pravastatin on MI and CHD: 1.06
Pravastatin vs placebo, hCV29992177 genotype AA
  OR, Effect of Pravastatin on MI and CHD: 0.71
Pravastatin vs placebo, hCV29992177 genotype GA
  OR, Effect of Pravastatin on MI and CHD: 0.57
Pravastatin vs placebo, hCV29992177 genotype GG
  OR, Effect of Pravastatin on MI and CHD: 1.88
Pravastatin vs placebo, hCV30225864 genotype CC
  OR, Effect of Pravastatin on MI and CHD: 0.79
Pravastatin vs placebo, hCV30225864 genotype CT
  OR, Effect of Pravastatin on MI and CHD: 0.63
Pravastatin vs placebo, hCV30225864 genotype TT
  OR, Effect of Pravastatin on MI and CHD: 0.73
Pravastatin vs placebo, hCV792699 CC minor homozygotes
  OR for minor hom: 0.8127
Pravastatin vs placebo, hCV792699 CC+CT carriers of minor allele
  OR for carrier (Min + Het): 0.7089
Pravastatin vs placebo, hCV792699 CT heterozygotes
  OR for Het: 0.6534
Pravastatin vs placebo, hCV792699 TT major homozygotes
  OR for major hom: 0.8085
Pravastatin vs placebo, hCV1650850 CC major homozygotes
  OR for major hom: 0.7381
Pravastatin vs placebo, hCV1650850 GC heterozygotes
  OR for Het: 1.7143
Pravastatin vs placebo, hCV1650850 GG+GC carriers of minor allele
  OR for carrier (Min + Het): 1.7143
Pravastatin vs placebo, hCV3054766 AA minor homozygotes
  OR for minor hom: 0.4856
Pravastatin vs placebo, hCV3054766 AA+AC carriers of minor allele
  OR for carrier (Min + Het): 0.6695
Pravastatin vs placebo, hCV3054766 AC heterozygotes
  OR for Het: 0.7705
Pravastatin vs placebo, hCV3054766 CC major homozygotes
  OR for major hom: 0.9847
Pravastatin vs placebo, hCV3054789 AA minor homozygotes
  OR for minor hom: 1.0873
Pravastatin vs placebo, hCV3054789 AA+AT carriers of minor allele
  OR for carrier (Min + Het): 0.8227
Pravastatin vs placebo, hCV3054789 AT heterozygotes
  OR for Het: 0.7597
Pravastatin vs placebo, hCV3054789 TT major homozygotes
  OR for major hom: 0.6567
Pravastatin vs placebo, hCV3054799 AA major homozygotes
  OR for major hom: 0.8639
Pravastatin vs placebo, hCV3054799 GA heterozygotes
  OR for Het: 0.5818
Pravastatin vs placebo, hCV3054799 GG minor homozygotes
  OR for minor hom: 0.9215
Pravastatin vs placebo, hCV3054799 GG+GA carriers of minor allele
  OR for carrier (Min + Het): 0.6442
Pravastatin vs placebo, hCV3054805 CC major homozygotes
  OR for major hom: 0.9323
Pravastatin vs placebo, hCV3054805 GC heterozygotes
  OR for Het: 0.5933
Pravastatin vs placebo, hCV3054805 GG minor homozygotes
  OR for minor hom: 0.9317
Pravastatin vs placebo, hCV3054805 GG+GC carriers of minor allele
  OR for carrier (Min + Het): 0.6653
Pravastatin vs placebo, hCV3054808 AA minor homozygotes
  OR for minor hom: 1.037
Pravastatin vs placebo, hCV3054808 AA+AC carriers of minor allele
  OR for carrier (Min + Het): 0.6257
Pravastatin vs placebo, hCV3054808 AC heterozygotes
  OR for Het: 0.5292
Pravastatin vs placebo, hCV3054808 CC major homozygotes
  OR for major hom: 1.0056
Pravastatin vs placebo, hCV3054822 AA minor homozygotes
  OR for minor hom: 0.852
Pravastatin vs placebo, hCV3054822 AA+AT carriers of minor allele
  OR for carrier (Min + Het): 0.5778
Pravastatin vs placebo, hCV3054822 AT heterozygotes
  OR for Het: 0.5213
Pravastatin vs placebo, hCV3054822 TT major homozygotes
  OR for major hom: 0.9897
Pravastatin vs placebo, hCV3054829 CC minor homozygotes
  OR for minor hom: 0.9021
Pravastatin vs placebo, hCV3054829 CC+CT carriers of minor allele
  OR for carrier (Min + Het): 0.8052
Pravastatin vs placebo, hCV3054829 CT heterozygotes
  OR for Het: 0.783
Pravastatin vs placebo, hCV3054829 TT major homozygotes
  OR for major hom: 0.6064
Pravastatin vs placebo, hCV15876373 CC+CT carriers of minor allele
  OR for carrier (Min + Het): 0.9708
Pravastatin vs placebo, hCV15876373 CT heterozygotes
  OR for Het: 0.8241
Pravastatin vs placebo, hCV15876373 TT major homozygotes
  OR for major hom: 0.6881
Pravastatin vs placebo, hCV29649182 CC major homozygotes
  OR for major hom: 0.7223
Pravastatin vs placebo, hCV29649182 TC heterozygotes
  OR for Het: 0.7631
Pravastatin vs placebo, hCV29649182 TT minor homozygotes
  OR for minor hom: 1.7333
Pravastatin vs placebo, hCV29649182 TT+TC carriers of minor allele
  OR for carrier (Min + Het): 0.7818
Pravastatin vs placebo, hCV30388472 CC minor homozygotes
  OR for minor hom: 0.5175
Pravastatin vs placebo, hCV30388472 CC+CT carriers of minor allele
  OR for carrier (Min + Het): 0.6291
Pravastatin vs placebo, hCV30388472 CT heterozygotes
  OR for Het: 0.6798
Pravastatin vs placebo, hCV30388472 TT major homozygotes
  OR for major hom: 1.0182
Pravastatin vs placebo, hCV30478067 AA+AG carriers of minor allele
  OR for carrier (Min + Het): 0.6875
Pravastatin vs placebo, hCV30478067 AG heterozygotes
  OR for Het: 0.5153
Pravastatin vs placebo, hCV30478067 GG major homozygotes
  OR for major hom: 0.7461
Pravastatin vs placebo, hCV31340487 CC+CT carriers of minor allele
  OR for carrier (Min + Het): 1.1573
Pravastatin vs placebo, hCV31340487 CT heterozygotes
  OR for Het: 1.0761
Pravastatin vs placebo, hCV31340487 TT major homozygotes
  OR for major hom: 0.697
Pravastatin vs placebo, hCV32202303 CC+CG carriers of minor allele
  OR for carrier (Min + Het): 0.5857
Pravastatin vs placebo, hCV32202303 CG heterozygotes
  OR for Het: 0.6208
Pravastatin vs placebo, hCV32202303 GG major homozygotes
  OR for major hom: 0.7655
Whole pravastatin-treated group, 5 years of follow-up
  patients who had experienced another MI: 114 patients

— patent US8148070B2, “Genetic polymorphisms associated with coronary events and drug response, methods of detection and uses thereof” (Celera Corporation, priority 2007, dated 2012)
